Structures can show the parent of a compound that is named as a salt.
What follows are compounds tested against T1, recombinant human MCHR1-receptors (Homo sapiens, UniProt Q99705) (assay: MCHR filter binding assay (competition binding)). Details: membranes from CHO-K1 cells expressing human MCHR1; 0.2 nM [Phe13,[125I]Tyr19]-MCH; read-out: IC50 (nM), in vitro activity (binding assay).
T1 construct: expressed in transfected cells
T1 sequence (Q99705 whole entry): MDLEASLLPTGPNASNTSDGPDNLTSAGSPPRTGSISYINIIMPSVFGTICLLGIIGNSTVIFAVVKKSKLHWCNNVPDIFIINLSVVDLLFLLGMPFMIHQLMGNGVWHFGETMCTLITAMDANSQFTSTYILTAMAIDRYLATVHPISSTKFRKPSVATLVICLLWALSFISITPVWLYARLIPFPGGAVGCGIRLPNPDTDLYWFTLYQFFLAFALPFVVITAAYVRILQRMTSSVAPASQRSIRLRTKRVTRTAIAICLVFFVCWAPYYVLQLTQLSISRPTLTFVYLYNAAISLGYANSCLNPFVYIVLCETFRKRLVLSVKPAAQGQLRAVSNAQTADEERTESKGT
In short: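 Membranes from CHO-K1 cells stably expressing human MCHR1 (2.8 μg) preincubated 15 min with competitor, then 1 h at rt with 0.2 nM [Phe13,[125I]Tyr19]-MCH in HEPES/CaCl2/BSA/phenanthroline/Triton buffer. Bound radioactivity counted after rapid filtration over PVP/BSA-treated GF/B filters.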
`CCCC(=O)Nc1ccc2c(c1)C[C@@H](CN1CCC(n3c(C)nc4cc(C)ccc43)CC1)C2` [Example 44, -{(S)-2-[4-(2,5-Dimethyl-benzoimidazol-1-yl)-piperidin-1-ylmethyl]-indan-5-yl}-butyramide] was tested, and the IC50 was 20 to 200 nM. `CCc1nc2cc(C)ccc2n1C1CCN(C[C@@H]2Cc3ccc(NC(=O)C4CC4)cc3C2)CC1OC` (stereo partly drawn) [Example 72, Cyclopropanecarboxylic acid {(R)-2-[4-(2-ethyl-5-methyl-benzoimidazol-1-yl)-3-methoxy-piperidin-1-ylmethyl]-indan-5-yl}-amide] showed an IC50 of 20 to 200 nM. Compound `CO[C@@H]1CN(C[C@@H]2Cc3ccc(F)cc3C2)CC[C@H]1n1c(C(C)(C)O)nc2cc(C)ccc21` [Example 109, 2-{1-[(3R,4R)-1-((R)-5-Fluoro-indan-2-ylmethyl)-3-methoxy-piperidin-4-yl]-5-methyl-1H-benzoimidazol-2-yl}-propan-2-ol] has an IC50 of 20 to 200 nM. Compound `COC(=O)Nc1ccc2c(c1)C[C@H](CN1CCC(n3c(C(C)(C)C)nc4cc(C)ccc43)CC1)C2` [Example 40, {(R)-2-[4-(2-tert-Butyl-5-methyl-benzoimidazol-1-yl)-piperidin-1-ylmethyl]-indan-5-yl}-carbamic acid methyl ester] has an IC50 of under 20 nM. In the case of `CO[C@@H]1CN(CC2Cc3ccc(Br)cc3C2)CC[C@H]1n1c(C(C)(C)O)nc2cc(C)ccc21` (stereo in doubt) [Example 11, 2-{1-[(3R,4R)-1-((S)-5-Bromo-indan-2-ylmethyl)-3-methoxy-piperidin-4-yl]-5-methyl-1H-benzoimidazol-2-yl}-propan-2-ol], the IC50 was under 20 nM. For `Cc1cc2nc(C)n(C3CCN(C[C@@H]4Cc5ccc(NC(=O)C(C)C)cc5C4)CC3)c2cn1` [Example 10, N-{(R)-2-[4-(2,6-Dimethyl-imidazo[4,5-c]pyridin-3-yl)-piperidin-1-ylmethyl]-indan-5-yl}-isobutyramide; compound with trifluoro-acetic acid], the IC50 was 200 to 5000 nM. For `CO[C@H]1CN(CC2Cc3ccccc3C2)CC[C@@H]1n1c(C(C)C)nc2cc(C)ccc21` [Example 29, 1-((3S,4S)-1-Indan-2-ylmethyl-3-methoxy-piperidin-4-yl)-2-isopropyl-5-methyl-1H-benzoimidazole], the IC50 was 200 to 5000 nM. In the case of `CO[C@@H]1CN(C[C@@H]2Cc3ccc(NC(=O)C(C)C)cc3C2)CC[C@H]1n1c(C)nc2cc(C)ccc21` [Example 16, N-{(R)-2-[(3R,4R)-4-(2,5-Dimethyl-benzoimidazol-1-yl)-3-methoxy-piperidin-1-ylmethyl]-indan-5-yl}-isobutyramide; dihydrochloride], the IC50 was 20 to 200 nM. `COC(=O)Nc1ccc2c(c1)C[C@H](CN1CC[C@@H](n3c(C4CC4)nc4cc(C)ccc43)[C@H](OC)C1)C2` [Example 75, {(R)-2-[(3R,4R)-4-(2-Cyclopropyl-5-methyl-benzoimidazol-1-yl)-3-methoxy-piperidin-1-ylmethyl]-indan-5-yl}-carbamic acid methyl ester] gave an IC50 of 20 to 200 nM. `CCC(=O)Nc1ccc2c(c1)C[C@H](CN1CCC(n3c(CC)nc4cc(C)ccc43)C(OC)C1)C2` (stereo partly drawn) [Example 69, N-{(R)-2-[4-(2-Ethyl-5-methyl-benzoimidazol-1-yl)-3-methoxy-piperidin-1-ylmethyl]-indan-5-yl}-propionamide] was tested, and the IC50 was under 20 nM. With `CO[C@H]1CN(C[C@@H]2Cc3ccc(NC(=O)C(C)C)cc3C2)CC[C@@H]1n1c(C)nc2cc(C)ccc21` [Example 34, N-{(R)-2-[(3S,4S)-4-(2,5-Dimethyl-benzoimidazol-1-yl)-3-methoxy-piperidin-1-ylmethyl]-indan-5-yl}-isobutyramide] the IC50 was under 20 nM. In the case of `CCC(=O)Nc1ccc2c(c1)C[C@H](CN1CC[C@H](n3c(C4CC4)nc4cc(C)ccc43)[C@@H](OC)C1)C2` [Example 60, N-{(R)-2-[(3S,4S)-4-(2-Cyclopropyl-5-methyl-benzoimidazol-1-yl)-3-methoxy-piperidin-1-ylmethyl]-indan-5-yl}-propionamide], the IC50 was under 20 nM. `Cc1ccc2c(c1)nc(C(C)(C)O)n2C1CCN(CC2Cc3ccncc3C2)CC1` (stereo not shown) [Example 12, 2-{1-[1-(6,7-Dihydro-5H-[2]pyrindin-6-ylmethyl)-piperidin-4-yl]-5-methyl-1H-benzoimidazol-2-yl}-propan-2-ol] showed an IC50 of 20 to 200 nM. For `Cc1ccc2c(c1)nc(C)n2C1CCN(CC2Cc3ccc(NC(=O)C(C)C)cc3C2)CC1` (stereo not shown) [Example 46, N-{2-[4-(2,5-Dimethyl-benzoimidazol-1-yl)-piperidin-1-ylmethyl]-indan-5-yl}-isobutyramide], the IC50 was 20 to 200 nM. `Cc1ccc2c(c1)nc(C)n2[C@@H]1CCN(C[C@@H]2Cc3ccc(NC(=O)C(C)C)cc3C2)C[C@H]1CO` (racemic) [Example 3, N-{(R)-2-[4-(2,5-Dimethyl-benzoimidazol-1-yl)-3-hydroxymethyl-piperidin-1-ylmethyl]-indan-5-yl}-isobutyramide] showed an IC50 of under 20 nM. `CCCC(=O)Nc1ccc2c(c1)C[C@H](CN1CC[C@H](n3c(C4CC4)nc4cc(C)ccc43)[C@@H](OC)C1)C2` [Example 62, N-{(R)-2-[(3S,4S)-4-(2-Cyclopropyl-5-methyl-benzoimidazol-1-yl)-3-methoxy-piperidin-1-ylmethyl]-indan-5-yl}-butyramide] showed an IC50 of under 20 nM. Compound `CO[C@@H]1CN(C[C@@H]2Cc3ccc(NC(=O)C4CC4)cc3C2)CC[C@H]1n1c(C)nc2cc(F)ccc21` [Example 28, Cyclopropanecarboxylic acid {(R)-2-[(3R,4R)-4-(5-fluoro-2-methyl-benzoimidazol-1-yl)-3-methoxy-piperidin-1-ylmethyl]-indan-5-yl}-amide; dihydrochloride] has an IC50 of 200 to 5000 nM. `Cc1ccc2c(c1)nc(C(C)(C)O)n2C1CCN(C[C@H]2Cc3ccc(Br)cc3C2)CC1` [Example 99, 2-{1-[1-((S)-5-Bromo-indan-2-ylmethyl)-piperidin-4-yl]-5-methyl-1H-benzoimidazol-2-yl}-propan-2-ol] showed an IC50 of under 20 nM. `CO[C@@H]1CN(CC2Cc3ccc(C(C)C)cc3C2)CC[C@H]1n1c(C(C)C)nc2cc(C)ccc21` (stereo partly drawn) [Example 98, 2-Isopropyl-1-[(3R,4R)-1-(5-isopropyl-indan-2-ylmethyl)-3-methoxy-piperidin-4-yl]-5-methyl-1H-benzoimidazole] gave an IC50 of 200 to 5000 nM. With `Cc1ccc2c(c1)nc(CC(C)(C)O)n2C1CCN(CC2Cc3ccc(F)cc3C2)CC1` (stereo not shown) [Example 23, 1-{1-[1-(5-Fluoro-indan-2-ylmethyl)-piperidin-4-yl]-5-methyl-1H-benzoimidazol-2-yl}-2-methyl-propan-2-ol; dihydrochloride] the IC50 was 20 to 200 nM. With `Cc1ccc2c(c1)nc(C)n2[C@@H]1CCN(C[C@@H]2Cc3ccc(NC(=O)C(C)C)cc3C2)C[C@H]1OS(C)(=O)=O` [Example 7, Methanesulfonic acid 4-(2,5-dimethyl-benzoimidazol-1-yl)-1-((R)-5-isobutyrylamino-indan-2-ylmethyl)-piperidin-3-yl ester] the IC50 was 20 to 200 nM. For `CO[C@H]1CN(C[C@@H]2Cc3ccc(NC(=O)C(C)C)cc3C2)CC[C@@H]1n1c(C2CC2)nc2cc(C)ccc21` [Example 65, N-{(R)-2-[(3S,4S)-4-(2-Cyclopropyl-5-methyl-benzoimidazol-1-yl)-3-methoxy-piperidin-1-ylmethyl]-indan-5-yl}-isobutyramide], the IC50 was under 20 nM. For `CCc1nc2cc(C)ccc2n1C1CCN(C[C@@H]2Cc3ccc(NC(=O)C(C)C)cc3C2)CC1OC` (stereo partly drawn) [Example 61, N-{(R)-2-[4-(2-Ethyl-5-methyl-benzoimidazol-1-yl)-3-methoxy-piperidin-1-ylmethyl]-indan-5-yl}-isobutyramide], the IC50 was under 20 nM. `CO[C@H]1CN(CC2Cc3cc(Cl)c(Cl)cc3C2)CC[C@@H]1n1c(C(C)C)nc2cc(C)ccc21` [Example 95, 1-[(3S,4S)-1-(5,6-Dichloro-indan-2-ylmethyl)-3-methoxy-piperidin-4-yl]-2-isopropyl-5-methyl-1H-benzoimidazole; dihydrochloride] gave an IC50 of 200 to 5000 nM. Work on `CO[C@@H]1CN(CC2Cc3cccc(Cl)c3C2)CC[C@H]1n1c(C)nc2cc(C)ccc21` (stereo partly drawn) [Example 97, 1-[(3R,4R)-1-(4-Chloro-indan-2-ylmethyl)-3-methoxy-piperidin-4-yl]-2,5-dimethyl-1H-benzoimidazole] yielded an IC50 of 20 to 200 nM. `Cc1ccc2c(c1)CC(CN1CC[C@@H](n3c(C(C)(C)O)nc4cc(C)ccc43)[C@H](O)C1)C2` (stereo partly drawn) [Example 114, (3R,4R)-4-[2-(1-Hydroxy-1-methyl-ethyl)-5-methyl-benzoimidazol-1-yl]-1-(5-methyl-indan-2-ylmethyl)-piperidin-3-ol] was tested, and the IC50 was 20 to 200 nM. In the case of `COC(=O)Nc1ccc2c(c1)C[C@H](CN1CCC(n3c(C(C)(C)O)nc4cc(C)ccc43)CC1)C2` [Example 6, ((R)-2-{4-[2-(1-Hydroxy-1-methyl-ethyl)-5-methyl-benzoimidazol-1-yl]-piperidin-1-ylmethyl}-indan-5-yl)-carbamic acid methyl ester], the IC50 was 20 to 200 nM. `CCC(=O)Nc1ccc2c(c1)C[C@H](CN1CC[C@@H](n3c(C(C)C)nc4cc(C)ccc43)[C@H](O)C1)C2` [Example 84, N-{(R)-2-[(3R,4R)-3-Hydroxy-4-(2-isopropyl-5-methyl-benzoimidazol-1-yl)-piperidin-1-ylmethyl]-indan-5-yl}-propionamide] gave an IC50 of under 20 nM. In the case of `CO[C@@H]1CN(C[C@H]2Cc3ccc(Br)cc3C2)CC[C@H]1n1c(C)nc2cc(C)ccc21` [Example 1, 1-[(3R,4R)-1-((S)-5-Bromo-indan-2-ylmethyl)-3-methoxy-piperidin-4-yl]-2,5-dimethyl-1H-benzoimidazole], the IC50 was under 20 nM. Work on `CCOc1nc2cc(C)ccc2n1C1CCN(CC2Cc3ccc(NC(=O)C(C)C)cc3C2)CC1` (stereo in doubt) [Example 4, N-{(S)-2-[4-(2-Ethoxy-5-methyl-benzoimidazol-1-yl)-piperidin-1-ylmethyl]-indan-5-yl}-isobutyramide] yielded an IC50 of 20 to 200 nM.

Same assay, conditions: membranes from CHO-K1 cells expressing human MCHR1; 0.2 nM [Phe13,[125I]Tyr19]-MCH; read-out: IC50 (nM), selected in vitro MCH-R binding data
With `CO[C@@H]1CN(C[C@H]2Cc3ccc(Br)cc3C2)CC[C@H]1n1c(C)nc2cc(C)ccc21` [Example 1, 1-[(3R,4R)-1-((S)-5-Bromo-indan-2-ylmethyl)-3-methoxy-piperidin-4-yl]-2,5-dimethyl-1H-benzoimidazole] the IC50 was 20 nM.

— patent publication US7803816B2, “MCH receptor antagonists” (Hoffmann-La Roche Inc., priority 2005, dated 2010)
